According to US5358936A, “Anionic furanose derivatives, methods of making and using the same” (Gordon; Paul, priority 1991, dated 1994):
“Also recorded” adds a separate entry of the source. Where a name gives a salt, the structure may show the parent alone.

Legend:
[1] = test system: bacterial lipopolysaccharide toxicity; assay: Early shock symptoms (diarrhea, malaise) after bacterial endotoxin in older rabbits (Example 28 B); assay type: in vivo, rabbit; conditions: 10 mg/kg IV; by 48 hours; all eight controls affected; P<0.01
Protocol: B. Employing the same batch of endotoxin, the same induction methodology was applied to an older, seven month old group of rabbits. […] In this study the treatment group received 10 mg/kg of Compound III, given IV, as above.

[2] = test system: rat hind paws; assay: Paw swelling provoked by zymosan-activated serum or normal serum (Example 23); assay type: in vivo; conditions: for Paw Swelling, ZAS (MPO study): 45 minutes before ZAS, ZAS alone 34.58 ± 2.45; for Paw Swelling, ZAS (MPO study) / Paw Swelling, ZAS: P < 0.01; for Swelling Change, ZAS / Swelling Change, normal serum (NS): 50 mg/kg oral
Protocol: For the present studies, zymosan-activated serum (ZAS) was made by incubating reconstituted lyophilized rat serum with 10 mg/ml zymosan A for one hour at 37° C., and then microfiltering to remove the zymosan.
In the first study, distilled water vehicle or 50 mg/kg Compound III in water were given by oral gavage to 9 control and 9 drug-treated adult male rats, respectively, and 90 minutes later the dorsoventral diameter of the hind feet were determined by Schnelltaster caliper. Sera [0.1 ml ZAS or 0.1 ml normal serum (NS)] were thereafter injected into opposite hind paws of the same rat under ether anesthesia. Below are given the paw swellings that developed at 2 and 3 hours, in response to ZAS and to normal serum, in the absence and presence of drug treatment. Data are reported previously.
(§1) The relationship of neutrophil infiltration to ZAS-induced swelling, and its drug-inhibition, was evaluated in another study. In this study, all procedures employing ZAS and Compound III were carried out as above, except that, Compound III was administered 45 minutes before ZAS, and standardized samples of the swollen footpads were removed and subjected to analysis for myeloperoxidase activity (MPO), according to the method of Lundberg et al., Inflammation, 7:247, (1983). MPO is a neutrophil-specificenzyme, and its assay is the most widely used method of identifying the degree of neutrophil participation in organ pathology.

[3] = test system: lung gross pathology; assay: Generalized Schwartzmann Reaction (Example 28 A); assay type: in vivo, rabbit; conditions: P < 0.01
Protocol: The Generalized Schwartzmann Reaction (GSR) is a pathology in which two intravenous injections of non-lethal amounts of bacterial endotoxin, when separated by 8 to 36 hours, promote thrombotic and tissue-destructive processes in the lung, producing disseminated pulmonary thrombosis and necrosis in otherwise untreated rabbits.
A. In this study, eight six-week old salmonella-free male rabbits each weighing about 1.5 kg were injected IV with saline vehicle and eight similar rabbits were injected IV with 50 mg/kg of Compound III in the same vehicle. One hour later, all of the animals were injected IV with 100 μg of E. coli lipopolysaccharide (LPS; Sigma Chemical Co.) on day one and with the same amount of LPS on day two, twenty hours later. Animals were evaluated for clinical signs at 24 and 48 hours, and were sacrificed for organ evaluation 48 hours after the second endotoxin injection.
In assessing gross pathology, separate scores were developed in four categories and these were then summed and added, in one instance, to a score for clinical signs.
Gross Pathology Categories
(1) Surface redness, diffuse or mottled (reflecting hyperemia, hemostasis).+2 to +4.
(2) Discrete focal surface lesions (reflecting thrombosis without disruption of gross pulmonary architecture).

[4] = test system: rat stomachs; assay: Gastric pathology following inflammatory stress and indomethacin, fed rats (Example 20); assay type: in vivo, male Sprague Dawley rats; set-up: scale not given here; conditions: stress + indomethacin 30 mg/kg oral; Compound III 50 mg/kg subcutaneously where given; 24 hours
Protocol: Stress was induced by the following procedure. On day one, under ether anesthesia, 18 male Sprague Dawley rats were injected with a suspension of Zymosan A (1 mg/ml in normal saline; Sigma Chemical Co.) in each hind paw. Swelling developed and persisted. This treatment generated activated blood complement locally (including the C5a moiety), which then spread by the bloodstream throughout the animal.
Twenty-four hours later all rat paws were reinjected, this time with 0.1 ml of proinflammatory zymosan-activated rat serum containing additional amounts of inflammatory complement fragment C5a (as in Example 23, hereinafter). Five hours later 30 mg/kg indomethacin in an aqueous suspension was given to nine such rats by oral garage. These rats also received a subcutaneous injection of 0.1 ml normal saline. Nine other such rats were given indomethacin as above, and Compound III (50 mg/kg in normal saline subcutaneously). Four additional rats, not stressed (normal) were given water by garage as a placebo and saline subcutaneously. All rats were fed ad libitum on standard diet.
Twenty-four hours later all animals were sacrificed by ether euthanasia. Their stomachs were washed with saline and evaluated for ulcer-related pathology using an illuminated magnifying glass. This assay is similar to that reported by Kinney et al., J. Med. Chem., 33:327 (1990).

[5] = test system: myeloperoxidase (MPO); neutrophil infiltration; assay: Myeloperoxidase (MPO) accumulation in ZAS-swollen footpads (Example 23); assay type: in vivo, rat; conditions: ZAS alone 94.42 ± 12.81, normal 11.67 ± 1.87, P < 0.01
Protocol: as §1

[6] = test system: platelet aggregation; assay: Mouse tail bleeding time (Example 31 B); assay type: in vivo
Protocol: A study of mouse tail bleeding time, which is an in vivo model of platelet aggregation and thrombosis was also conducted. In this widely employed model, bleeding was induced by a standardized transection of the tail tip and subsequent bleeding time was determined after vertical immersion of the tails in isotonic saline at 37° C. for thirty seconds.
Two compounds of the invention, Compound III and Compound VIII, were assessed as compared with aspirin, in another study of mouse tail bleeding time. In this study, the mice were housed in a standard animal room rather than in a noisy small animal isolator. Also, all three drugs were administered by an intraperitoneal route, rather than a subcutaneous route for Compound III and an intraperitoneal route for aspirin.

[7] = test system: foot pad; assay: Inflammation provoked by carrageenan injection (Example 25); assay type: in vivo, mice
[8] = Acute toxicity in the mouse (Example 29 A); conditions: in vivo
Text: Acute intraperitoneal and oral toxicity of Compound III was studied in the mouse. Ten animals per dose were employed.

[9] = physchem
Text: (§2) Note that the term "apparent pK" in this context is meant to encompass the maximization of buffering that come both from solid-state dissolution and its titration as solute.

[10] = Dissolution and buffering of suspensions, HCl titration (Example 16); conditions: HCl titration
Text: as §2

**Q.** Which “rabbits exhibiting symptoms of early shock (diarrhea, malaise)” value [1] does the source give for `CC1(C)O[C@H]2O[C@H]([C@@H](COS(=O)(=O)O)OS(=O)(=O)O)[C@H](OS(=O)(=O)O)[C@H]2O1` [Compound III, 1,2-O-(2-Propylidene)-3,5,6-tri-O-sulfo-α-D-glucofuranose, tripotassium salt] here?
**A.** only one of eight

**Q.** What about the “Paw Swelling, ZAS (MPO study)” value ([2]; 17 mg/kg, n = 6) of the same compound?
**A.** 16.83 ± 2.12 0.1 mm

**Q.** And the “Paw Swelling, ZAS (MPO study)” value ([2]; 50 mg/kg, n = 12)?
**A.** 15.25 ± 3.99 0.1 mm

**Q.** What about the “Paw Swelling, ZAS” value ([2]; 2 hours post-ZAS, 50 mg/kg oral gavage 90 minutes before, control 27.22 ± 1.97) of the same compound?
**A.** 10.78 ± 1.94 0.1 mm

**Q.** And the “Swelling Change, ZAS” value ([2]; 2 hours)?
**A.** -60%

**Q.** And the “Swelling Change, normal serum (NS)” value ([2]; 2 hours)?
**A.** -32%

**Q.** And the “Paw Swelling, normal serum (NS)” value ([2]; 2 hours, 50 mg/kg oral gavage, control 11.22 ± 1.28)?
**A.** 7.67 ± 1.41 0.1 mm

**Q.** What about the “Paw Swelling, ZAS” value ([2]; 3 hours post-ZAS, 50 mg/kg oral gavage, control 28.89 ± 2.48) of the same compound?
**A.** 16.11 ± 2.94 0.1 mm

**Q.** And the “Swelling Change, ZAS” value ([2]; 3 hours)?
**A.** -44%

**Q.** And the “Swelling Change, normal serum (NS)” value ([2]; 3 hours)?
**A.** -17%

**Q.** And the “Paw Swelling, normal serum (NS)” value ([2]; 3 hours, 50 mg/kg oral gavage, control 11.44 ± 1.55)?
**A.** 9.44 ± 1.28 0.1 mm

**Q.** And the “Mean Pathology score” value ([3]; 50 mg/kg IV one hour before LPS, untreated 8.00 ± 1.02)?
**A.** 2.25 ± 1.10

**Q.** What about the “Drug Effect on mean pathology score” value ([3]; 50 mg/kg IV) of the same compound?
**A.** -72%

**Q.** What about the “Mean Pathology score” value [4] of the same compound?
**A.** 0.00

**Q.** What about the “Pathology score, individual rat” value [4] of the same compound?
**A.** 0.0

**Q.** What about the MPO ([5]; 17 mg/kg, n = 6) of the same compound?
**A.** 32.17 ± 2.83 Rel. Units

**Q.** And the MPO ([5]; 50 mg/kg, n = 12)?
**A.** 41.67 ± 8.93 Rel. Units

**Q.** What about the “effect on mouse tail bleeding time, in words” value ([6]; 50 mg/kg and 150 mg/kg subcutaneously, P<0.05) of the same compound?
**A.** more than doubled bleeding time

**Q.** And the “% Increase in bleeding time” value ([6]; 100 mg/kg intraperitoneal)?
**A.** 276%

**Q.** And the “Mouse Tail Bleeding Time” value ([6]; 100 mg/kg intraperitoneal, control 37.0 ± 5.25)?
**A.** 139.0 ± 22.51 s

**Q.** What about the “potency relative to aspirin in prolonging mouse tail bleeding time / suppressing platelet aggregation” value ([6]; first study: aspirin 75 mg/kg IP, Compound III s.c. or oral, second study: all IP 100 mg/kg, tripotassium salt) of the same compound?
**A.** equipotent with aspirin (75 mg/kg IP); also recorded: about equipotent with aspirin; also recorded: more effective than aspirin; also recorded: more potent than aspirin in the suppression of platelet aggregation

**Q.** And the reduction in swelling ([7]; subcutaneous, ibuprofen 50 mg/kg, Compound III 30 mg/kg, not significant)?
**A.** 26%

**Q.** And the “Swelling Change” value ([7]; two hours, SOD 100 units IV, Compound III 50 mg/kg IV + 50 mg/kg IP)?
**A.** -74%

**Q.** And the “Foot-Pad Swelling” value ([7]; two hours, SOD 100 units IV, Compound III 50 mg/kg IV + 50 mg/kg IP, control 3.8 ± 0.67)?
**A.** 0.82 ± 0.46 0.1 mm

**Q.** And the LD50 ([8]; ip, read-out: LD50, intraperitoneal)?
**A.** 2800 mg/kg

**Q.** And the NOAEL ([8]; iv)?
**A.** 3000 mg/kg

**Q.** And the “oral dose producing death” value ([8]; po)?
**A.** > 4500 mg/kg

**Q.** And the pKa [9]?
**A.** < 0.5

**Q.** What about the “buffering action, in words” value [10] of the same compound?
**A.** no buffering power
